Columns and labels:
ocular substrate [1] = experiment: Subject's report on a hydrogel (soft) contact lens coated with 2–3 drops of the ophthalmic fluid; type: in vivo
Excerpt: (§1) The ophthalmic fluid of the present invention is suitable for use with gas permeable (hard) contact lenses or hydrogel (soft) contact lenses. In use, 2–3 drops of the ophthalmic fluid of the present invention are placed onto the inside surface of the contact lens. The ophthalmic fluid is then distributed to cover fully and evenly the inside surface of the contact lens by rubbing the ophthalmic fluid into the lens with a fingertip or any other suitable applicator. It is envisaged that the ophthalmic fluid will be biologically sterile. The inside of a contact lens was coated with 2–3 drops of the ophthalmic fluid of the present invention and fitted to the subject in the conventional manner. The subject reported on the perceived ease of inserting the coated lens, the subject's sensual reaction to the coated lens and the resulting vision through the coated lens, in relation to hard and soft contact lenses.

ocular substrate [2] = experiment: Subject's report on a gas permeable (hard) contact lens coated with 2–3 drops of the ophthalmic fluid; type: in vivo
Excerpt: as §1, with “In” for “The ophthalmic fluid of the present invention is suitable for use with gas permeable (hard) contact lenses or hydrogel (soft) contact lenses. In”

vision through the coated lens (ocular substrate [1]) | vision through the coated lens (ocular substrate [2]) | time after which initially blurred vision cleared (ocular substrate [1]) [min] | time after which initially blurred vision cleared (ocular substrate [2]) | SMILES | sensation upon insertion / amelioration of the normal discomfort when inserting a soft lens (ocular substrate [1]) | tear production/expulsion and maceration (ocular substrate [1]) | subject's sensual reaction to the coated lens (comfort/irritation) (ocular substrate [2]) | tear production/expulsion and maceration (ocular substrate [2]) | comfort once the coated lens was inserted (ocular substrate [1]) | sensation/discomfort caused by the edges of the lens on the eye (ocular substrate [2])
clear vision | excessively and persistently blurred | – | – | CCCCC/C=C\C/C=C\C/C=C\C/C=C\CCCC(=O)OCC(COC(=O)CCC/C=C\C/C=C\C/C=C\C/C=C\CCCCC)OC(=O)CCC/C=C\C/C=C\C/C=C\C/C=C\CCCCC [triarachidonin, 1,2,3-tri(cis, cis, cis, cis, −5,8,11,14-eicosatetraenoyl)glycerol] | did not produce any noticeable improvement in the wearer's comfort | increased tear production upon insertion of the soft lens, but no maceration | comfortable to wear | did not experience tear production or maceration | – | –
initially experienced blurred vision | blurred | 2 | – | CC/C=C\C/C=C\C/C=C\CCCCCCCC(=O)OCC(COC(=O)CCCCCCC/C=C\C/C=C\C/C=C\CC)OC(=O)CCCCCCC/C=C\C/C=C\C/C=C\CC [trilinolenin, 1,2,3-tri(cis, cis, cis −9,12,15-octadecatrienoyl)glycerol] | – | – | extreme irritation | increased tear production and maceration of the ocular substrate | comfortable to wear | –
blurred | excessively blurred | – | – | CCCCCC/C=C\CCCCCCCC(=O)OCC(COC(=O)CCCCCCC/C=C\CCCCCC)OC(=O)CCCCCCC/C=C\CCCCCC [tripalmitolein, 1,2,3-tri(cis-9-hexadecenoyl)glycerol] | – | – | could not feel the presence of the coated lens | – | comfortable | not reduced to the same extent
immediately clear | initially experienced blurred vision | – | approximately 60 seconds | CCCCC/C=C\C/C=C\CCCCCCCC(=O)OCC(COC(=O)CCCCCCC/C=C\C/C=C\CCCCC)OC(=O)CCCCCCC/C=C\C/C=C\CCCCC [trilinolein, 1,2,3-tri(cis, cis-9,12octadecadienoyl)glycerol] | noticeable amelioration of the normal discomfort | no tear expulsion | could not feel the presence of the coated lens | no tear expulsion | could not feel the presence of the coated lens | not reduced to the same extent
